Experimental data taken from patent US8598211B2, “Carboxamide compounds and their use as calpain inhibitors IV” (AbbVie Inc., priority 2009, dated 2013).

Tests used:
Format in all cases: biochemical
calpain-I = target: T1, calpain-I (Homo sapiens, UniProt P07384); assay: Calpain I kinetic fluorescence enzyme inhibition assay; conditions: calpain-I from human erythrocytes, Suc-Leu-Tyr-AMC, pH 7.3; apparent Ki from IC50 by Cheng-Prussoff
T1 construct: calpain-I—isolated from human erythrocytes; purchased Calbiochem 208713; host or cells: human erythrocytes (natural source)
T1 sequence (P07384 1-714): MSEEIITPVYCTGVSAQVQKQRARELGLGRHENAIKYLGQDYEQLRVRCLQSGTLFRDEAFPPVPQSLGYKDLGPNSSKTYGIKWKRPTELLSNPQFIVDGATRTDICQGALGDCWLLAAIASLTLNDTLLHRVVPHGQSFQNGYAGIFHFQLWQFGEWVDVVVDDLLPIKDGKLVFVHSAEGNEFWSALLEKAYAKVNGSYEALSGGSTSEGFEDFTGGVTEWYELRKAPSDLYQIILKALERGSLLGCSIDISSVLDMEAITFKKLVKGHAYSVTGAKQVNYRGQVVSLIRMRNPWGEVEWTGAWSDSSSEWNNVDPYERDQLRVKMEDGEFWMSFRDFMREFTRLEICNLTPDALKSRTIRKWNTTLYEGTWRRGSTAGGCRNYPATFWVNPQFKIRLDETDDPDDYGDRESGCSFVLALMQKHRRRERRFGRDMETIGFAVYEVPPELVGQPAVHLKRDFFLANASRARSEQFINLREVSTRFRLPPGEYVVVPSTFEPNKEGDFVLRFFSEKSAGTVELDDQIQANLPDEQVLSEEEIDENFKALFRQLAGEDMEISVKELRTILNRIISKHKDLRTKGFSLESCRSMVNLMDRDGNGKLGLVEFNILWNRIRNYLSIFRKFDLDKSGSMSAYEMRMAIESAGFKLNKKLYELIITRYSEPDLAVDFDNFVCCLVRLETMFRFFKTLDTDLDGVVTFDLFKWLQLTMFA
T1 sequence (P04632 1-268 partner): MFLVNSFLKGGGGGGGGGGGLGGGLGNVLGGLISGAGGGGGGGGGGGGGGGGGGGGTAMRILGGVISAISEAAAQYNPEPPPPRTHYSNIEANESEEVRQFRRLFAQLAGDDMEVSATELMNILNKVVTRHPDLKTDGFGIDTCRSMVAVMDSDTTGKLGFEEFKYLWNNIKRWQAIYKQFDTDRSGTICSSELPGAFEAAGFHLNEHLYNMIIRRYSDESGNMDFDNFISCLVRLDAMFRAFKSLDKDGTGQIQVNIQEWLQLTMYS
Description: Testing for blockade of the corresponding enzymic activities was carried out by means of kinetic fluorescence assays (excitation 390 nm, emission 460 nm).
Apparent Ki values were calculated from the experimentally determined IC50 values by the Cheng-Prussoff relation assuming a reversible competitive enzyme inhibition.
20 nM calpain-I—isolated from human erythrocytes (Calbiochem #208713), 100 μM Suc-Leu-Tyr-AMC (Bachem #I-1355) as substrate in buffer with 62 mM imidazole, 0.3 mM CaCl2, 0.10% CHAPS, 0.05% BSA, 1 mM DTT at pH 7.3 and room temperature.

cathepsin B = target: T2, cathepsin B (Homo sapiens, UniProt P07858); assay: Cathepsin B kinetic fluorescence enzyme inhibition assay; conditions: selectivity ratio versus calpain
T2 construct: cathepsin B—isolated from human liver; purchased Calbiochem 219362; host or cells: human liver (natural source)
Description: 0.25 nM cathepsin B—isolated from human liver (Calbiochem #219362), 100 μM Z-Phe-Arg-AMC (Bachem #I-1160) as substrate 50 mM MES, 2 mM EDTA, 0.05% Brij 35, 2.5 mM L-cysteine, pH 6.0, room temperature.

cathepsin K = target: T3, cathepsin K (Homo sapiens, UniProt P43235); assay: Cathepsin K kinetic fluorescence enzyme inhibition assay; conditions: selectivity ratio versus calpain
T3 construct: purchased Calbiochem 342001; host or cells: E. coli
T3 sequence (P43235 115-329): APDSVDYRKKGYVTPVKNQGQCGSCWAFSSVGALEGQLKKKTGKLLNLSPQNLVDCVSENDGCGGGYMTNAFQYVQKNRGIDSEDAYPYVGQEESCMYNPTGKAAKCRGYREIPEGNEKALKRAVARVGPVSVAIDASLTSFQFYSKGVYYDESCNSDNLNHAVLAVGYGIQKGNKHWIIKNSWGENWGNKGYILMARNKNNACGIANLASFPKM
Description: 3 nM cathepsin K—activated from recombinant human procathepsin K from E. coli (Calbiochem #342001), 10 μM Z-Gly-Pro-Arg-AMC (Biomol #P-142) as substrate in 50 mM MES, 2 mM EDTA, 0.05% Brij 35, 2.5 mM L-cysteine, pH 6.0, room temperature.

cathepsin L = target: T4, cathepsin L (Homo sapiens, UniProt P07711); assay: Cathepsin L kinetic fluorescence enzyme inhibition assay; conditions: selectivity ratio versus calpain
T4 construct: cathepsin L—isolated from human liver; purchased Calbiochem 219402; host or cells: human liver (natural source)
T4 sequence (P07711 114-333): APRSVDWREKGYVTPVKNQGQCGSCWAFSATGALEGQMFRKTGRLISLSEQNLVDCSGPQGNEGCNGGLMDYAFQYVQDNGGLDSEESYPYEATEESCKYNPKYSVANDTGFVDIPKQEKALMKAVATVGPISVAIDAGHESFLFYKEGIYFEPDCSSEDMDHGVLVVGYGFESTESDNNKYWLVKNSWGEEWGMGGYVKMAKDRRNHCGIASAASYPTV
Description: 1 nM cathepsin L—isolated from human liver (Calbiochem #219402), 2 μM Z-Phe-Arg-AMC (Bachem #I-1160) as substrate in 50 mM MES, 2 mM EDTA, 0.05% Brij 35, 2.5 mM L-cysteine, pH 6.0, room temperature.

cathepsin S = target: T5, cathepsin S (Homo sapiens, UniProt P25774); assay: Cathepsin S kinetic fluorescence enzyme inhibition assay; conditions: selectivity ratio versus calpain
T5 construct: purchased Calbiochem 219343; host or cells: E. coli
T5 sequence (P25774 115-331): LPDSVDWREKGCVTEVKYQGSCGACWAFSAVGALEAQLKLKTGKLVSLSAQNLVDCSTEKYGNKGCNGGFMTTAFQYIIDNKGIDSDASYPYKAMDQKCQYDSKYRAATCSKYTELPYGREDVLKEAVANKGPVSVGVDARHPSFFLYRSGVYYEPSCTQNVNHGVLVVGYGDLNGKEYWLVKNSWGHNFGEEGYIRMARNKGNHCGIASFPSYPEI
Description: 0.5 nM recombinant human cathepsin S from E. coli (Calbiochem #219343), 20 μM Z-Val-Val-Arg-AMC (Bachem #I-1540) as substrate in 50 mM MES, 2 mM EDTA, 0.05% Brij 35, 2.5 mM L-cysteine, pH 6.0, room temperature.

SMILES	Ki (calpain-I) [nM]	Sel cat. B (Ki(cathepsin B)/Ki(calpain) ratio) (cathepsin B)	Sel cat. K (Ki(cathepsin K)/Ki(calpain) ratio) (cathepsin K)	Sel cat. L (Ki(cathepsin L)/Ki(calpain) ratio) (cathepsin L)	Sel cat. S (Ki(cathepsin S)/Ki(calpain) ratio) (cathepsin S)
O=C(NCCc1ccccn1)C(=O)C(Cc1ccccc1)NC(=O)c1cccnc1-n1ccc(-c2ccc(F)cc2)n1 (stereo not drawn) [Example 3, N-(3,4-Dioxo-1-phenyl-4-{[2-(pyridin-2-yl)ethyl]amino}butan-2-yl)-2-[3-(4-fluorophenyl)-1H-pyrazol-1-yl]pyridine-3-carboxamide]	250 to 400	++ (9<Ki(cathepsin B)/Ki(calpain)≦30)	++ (9<Ki(cathepsin K)/Ki(calpain)≦30)	++ (10<Ki(cathepsin L)/Ki(calpain)≦50)	++ (10<Ki(cathepsin S)/Ki(calpain)≦50)
O=C(NC1CC1)C(=O)C(Cc1ccccc1)NC(=O)[C@H]1CCC(=O)N1Cc1ccccc1F (mixture of isomers) [Example 30, (2R)—N-(4-(cyclopropylamino)-3,4-dioxo-1-phenylbutan-2-yl)-1-(2-fluorobenzyl)-5-oxopyrrolidine-2-carboxamide]	400 to 800	++ (9<Ki(cathepsin B)/Ki(calpain)≦30)	+++ (Ki(cathepsin K)/Ki(calpain) ratio of >30)	++ (10<Ki(cathepsin L)/Ki(calpain)≦50)	+++ (Ki(cathepsin S)/Ki(calpain) ratio of >50)
O=C(NCc1nc2ccccc2[nH]1)C(=O)C(Cc1ccccc1)NC(=O)c1cccnc1-n1ccc(-c2ccccc2)n1 (stereo not drawn) [Example 20, N-{4-[(1H-Benzimidazol-2-ylmethyl)amino]-3,4-dioxo-1-phenyl-2-butanyl}-2-(3-phenyl-1H-pyrazol-1-yl)nicotinamide]	800 to 1000	++ (9<Ki(cathepsin B)/Ki(calpain)≦30)	++ (9<Ki(cathepsin K)/Ki(calpain)≦30)	++ (10<Ki(cathepsin L)/Ki(calpain)≦50)	++ (10<Ki(cathepsin S)/Ki(calpain)≦50)
O=C(NC1CC1)C(=O)C(Cc1ccccc1)NC(=O)c1cccnc1-n1ccc(-c2cccc(N3CCOCC3)c2)n1 (stereo not drawn) [Example 26, N-[4-(Cyclopropylamino)-3,4-dioxo-1-phenyl-2-butanyl]-2-{3-[3-(4-morpholinyl)phenyl]-1H-pyrazol-1-yl}nicotinamide]	400 to 800	+ (5≦Ki(cathepsin B)/Ki(calpain)≦9)	++ (9<Ki(cathepsin K)/Ki(calpain)≦30)	++ (10<Ki(cathepsin L)/Ki(calpain)≦50)	++ (10<Ki(cathepsin S)/Ki(calpain)≦50)
COc1ccc(CC(NC(=O)c2cccnc2-n2ccc(-c3ccccc3)n2)C(=O)C(=O)NC2CC2)cc1 (stereo not drawn) [Example 22, N-[4-(Cyclopropylamino)-1-(4-methoxyphenyl)-3,4-dioxo-2-butanyl]-2-(3-phenyl-1H-pyrazol-1-yl)nicotinamide]	250 to 400	++ (9<Ki(cathepsin B)/Ki(calpain)≦30)	++ (9<Ki(cathepsin K)/Ki(calpain)≦30)	++ (10<Ki(cathepsin L)/Ki(calpain)≦50)	++ (10<Ki(cathepsin S)/Ki(calpain)≦50)
O=C(NCCc1ccccc1)C(=O)C(Cc1ccccc1)NC(=O)c1cccnc1-n1ccc(-c2ccc(F)cc2)n1 (stereo not drawn) [Example 1, N-{3,4-Dioxo-1-phenyl-4-[(2-phenylethyl)amino]butan-2-yl}-2-[3-(4-fluorophenyl)-1H-pyrazol-1-yl]pyridine-3-carboxamide]	250 to 400	++ (9<Ki(cathepsin B)/Ki(calpain)≦30)	++ (9<Ki(cathepsin K)/Ki(calpain)≦30)	++ (10<Ki(cathepsin L)/Ki(calpain)≦50)	++ (10<Ki(cathepsin S)/Ki(calpain)≦50)
